Results published in paper PMC6272684, “Synthesis, Antiproliferative and Antifungal Activities of 1,2,3-Triazole-Substituted Carnosic Acid and Carnosol Derivatives” (Molecules, 2015).
Like-named read-outs stand apart in the source and are kept apart here.

Tests used:
[1] = system: lung cancer (SK-MES-1) cells; test: Antiproliferative assay (MTT reduction, 3 days); type: cell-based, human; settings: >100 µM considered inactive, read-out: IC50 ± SD, SK-MES-1
Protocol: (§1) The antiproliferative activity towards the following human cell lines was determined: normal lung fibroblasts (MRC-5), gastric epithelial adenocarcinoma (AGS), lung cancer (SK-MES-1) and bladder carcinoma (J82) cells.
(§2) All human cell lines used in this work were purchased from the American Type Culture Collection (ATCC, Manasas, VA, USA). […] All media were supplemented with 10% heat-inactivated FBS, 100 IU∙mL^−1 penicillin and 100 µg∙mL^−1 streptomycin. Cells were grown in a humidified incubator with 5% CO2 in air at 37 °C. For the antiproliferative assay, cells were plated at a density of 5 × 10^4 cells∙mL^−1. Cells were seeded in 96-well plates (100 µL∙well^−1). One day after seeding, cells were treated with medium containing the compounds at concentrations ranging from 0 up to 100 µM during 3 days. The compounds were dissolved in DMSO (1% final concentration) and complete medium. Untreated cells (medium containing 1% DMSO) were used as 100% viability controls. […] Each concentration was tested in sextuplicate and experiments were repeated 2 times. Cell viability was determined by means of the MTT reduction assay at the end of the incubation with the products. […] The software used was OriginPro 8.1 [30].

[2] = system: normal lung fibroblasts (MRC-5); test: Antiproliferative assay (MTT reduction, 3 days); type: cell-based, human; settings: MRC-5 normal fibroblasts, >100 µM considered inactive; for IC50: read-out: IC50 ± SD, MRC-5
Protocol: as §1, §2

[3] = system: bladder carcinoma (J82) cells; test: Antiproliferative assay (MTT reduction, 3 days); type: cell-based, human; settings: read-out: IC50 ± SD, J82
Protocol: as §1, with “cells. […] When comparing the pairs 3–4, 5–6 and 7–8 differing in one CH2 unit in the linker, the activity decreased with linker length.” for “cells.”
(§3) All human cell lines used in this work were purchased from the American Type Culture Collection (ATCC, Manasas, VA, USA). Normal lung MRC-5 fibroblasts (CCL-171), SK-MES-1 lung cancer cells (HTB-58) and J82 bladder carcinoma cells (HTB-1) were grown as monolayers in minimum essential Eagle medium (MEM) with Earles’s salts, 2 mM L-glutamine and 1.5 g∙L^−1 sodium bicarbonate. Gastric adenocarcinoma AGS cells (CRL-1739) were grown as monolayers in Ham F-12 medium containing 1 mM L-glutamine and 1.5 g∙L^−1 sodium bicarbonate. All media were supplemented with 10% heat-inactivated FBS, 100 IU∙mL^−1 penicillin and 100 µg∙mL^−1 streptomycin. Cells were grown in a humidified incubator with 5% CO2 in air at 37 °C. For the antiproliferative assay, cells were plated at a density of 5 × 10^4 cells∙mL^−1. Cells were seeded in 96-well plates (100 µL∙well^−1). One day after seeding, cells were treated with medium containing the compounds at concentrations ranging from 0 up to 100 µM during 3 days. The compounds were dissolved in DMSO (1% final concentration) and complete medium. Untreated cells (medium containing 1% DMSO) were used as 100% viability controls. […] Each concentration was tested in sextuplicate and experiments were repeated 2 times. Cell viability was determined by means of the MTT reduction assay at the end of the incubation with the products. The results were transformed to percentage of controls and the IC50 value was obtained adjusting the dose-response curve to a sigmoidal model. The software used was OriginPro 8.1 [30].

[4] = system: gastric epithelial adenocarcinoma (AGS) cells; test: Antiproliferative assay (MTT reduction, 3 days); type: cell-based, human; settings: >100 µM considered inactive; for IC50: read-out: IC50 ± SD, AGS
Protocol: as §1, with “cells. […] When comparing the pairs 3–4, 5–6 and 7–8 differing in one CH2 unit in the linker, the activity decreased with linker length.” for “cells.”
as §3

[5] = system: C. neoformans ATCC 32264; test: Antifungal broth microdilution (CLSI M27-A3), growth inhibition; type: cell-based, Cryptococcus neoformans; settings: for MIC50 (minimum concentration to inhibit 50% of fungal growth), C. neoformans: C. neoformans ATCC 32264
How it was run: (§4)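 Yeast inocula (1–5 × 10^3 CFU/mL) were tested by CLSI M27-A3 broth microdilution in RPMI-1640 at 250–3.9 μg∙mL^−1 (DMSO ≤1%) for 48 h at 30 °C in the dark. Growth was read at OD405, and % inhibition was calculated against growth and sterility controls in triplicate. MIC100 is total inhibition; MIC50 is 50% inhibition.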

[6] = system: C. albicans ATCC 10231; test: as above; type: cell-based, Candida albicans; settings: for MIC50 (minimum concentration to inhibit 50% of fungal growth), C. albicans: C. albicans ATCC 10231
How it was run: as §4

[7] = J82 cells, 3 days, MTT, >100 µM considered inactive

IC50 [1] [µM]	IC50 [3, 7] [µM]	IC50 [4] [µM]	MIC50 (minimum concentration to inhibit 50% of fungal growth), C. neoformans [5] [µg/mL]	MIC50 (minimum concentration to inhibit 50% of fungal growth), C. albicans [6] [µg/mL]	SMILES	IC50 [2] [µM]	Inhibition percentage against C. neoformans ATCC 32264 ([5]; 3.9 μg∙mL^−1, 48 h) [%]	Inhibition percentage against C. neoformans ATCC 32264 ([5]; 7.8 μg∙mL^−1, 48 h) [%]	Inhibition percentage against C. neoformans ATCC 32264 ([5]; 15.6 μg∙mL^−1, 48 h) [%]	Inhibition percentage against C. neoformans ATCC 32264 ([5]; 31.2 μg∙mL^−1, 48 h) [%]	Inhibition percentage against C. neoformans ATCC 32264 ([5]; 62.5 μg∙mL^−1, 48 h) [%]	Inhibition percentage against C. neoformans ATCC 32264 ([5]; 125 μg∙mL^−1, 48 h) [%]	Inhibition percentage against C. neoformans ATCC 32264 ([5]; 250 μg∙mL^−1, 48 h) [%]	Inhibition percentage against C. albicans ATCC 10231 ([6]; 3.9 μg∙mL^−1, 48 h) [%]	Inhibition percentage against C. albicans ATCC 10231 ([6]; 7.8 μg∙mL^−1, 48 h) [%]	Inhibition percentage against C. albicans ATCC 10231 ([6]; 15.6 μg∙mL^−1, 48 h) [%]	Inhibition percentage against C. albicans ATCC 10231 ([6]; 62.5 μg∙mL^−1, 48 h) [%]	Inhibition percentage against C. albicans ATCC 10231 ([6]; 125 μg∙mL^−1, 48 h) [%]	Inhibition percentage against C. albicans ATCC 10231 ([6]; 250 μg∙mL^−1, 48 h) [%]	Inhibition percentage against C. albicans ATCC 10231 ([6]; 31. μg∙mL^−1, 48 h) [%]	further results
> 100	> 100	> 100	>250	>250	CC(C)c1cc2c3c(c1OC(=O)CCc1cn(Cc4ccc(Br)cc4)nn1)OC(=O)[C@@]31CCCC(C)(C)[C@@H]1CC2 [Compound 5, 12-O-(3-(1-(4-bromobenzyl)-1H-1,2,3-triazol-4-yl)-propanoyloxy)-11,20-epoxyabieta-8,11,13-trien-20-one]	82.6 ± 6.6	2.3 ± 0.9	6.0 ± 0.7	7.7 ± 0.6	8.7 ± 1.4	12.0 ± 1.0	12.6 ± 0.5	36.9 ± 2.2	0.0	0.0	0.0	4.1 ± 1.7	8.3 ± 3.3	16.5 ± 1.3	3.0 ± 2.7	
81.7 ± 4.3	> 100	39.2 ± 2.3	>250	>250	CC(C)c1cc2c3c(c1OC(=O)CCc1cn(CSc4ccccc4)nn1)OC(=O)[C@@]31CCCC(C)(C)[C@@H]1CC2 [Compound 1, 12-O-(3-(((1-phenylthio)methyl)-1H-1,2,3-triazol-4-yl)-propanoyloxy)-11,20-epoxyabieta-8,11,13-trien-20-one]	45.1 ± 2.1	0.0	0.0	0.0	3.7 ± 0.1	3.9 ± 0.4	8.9 ± 0.7	11.0 ± 0.5	0.0	0.0	0.4 ± 0.2	3.5 ± 0.3	8.2 ± 0.1	17.1 ± 0.1	1.9 ± 0.3	Antifungal activity against C. albicans (in words) ([6]; at the assayed concentrations (250–3.9 μg∙mL^−1)): devoid of activity
					COc1cc([C@@H]2c3cc4c(cc3[C@@H](O[C@@H]3O[C@@H]5CO[C@@H](C)O[C@H]5[C@H](O)[C@H]3O)[C@H]3COC(=O)[C@H]23)OCO4)cc(OC)c1O [Etoposide, reference compound]																IC50 ([3]; Homo sapiens, J82, 72 h): 3.49 ± 0.16 µM; IC50 ([4]; Homo sapiens, 72 h): 0.58 ± 0.02 µM
> 100	> 100	64.3 ± 4.5	>250	>250	CC(C)c1cc2c3c(c1OC(=O)CCc1cn(Cc4ccc([N+](=O)[O-])cc4)nn1)OC(=O)C31CCCC(C)(C)C1CC2 (centres unmarked) [Compound 7, 12-O-(3-(1-(4-nitrobenzyl)-1H-1,2,3-triazol-4-yl)-propanoyloxy)-11,20-epoxyabieta-8,11,13-trien-20-one]	60.6 ± 3.6	0.0	0.0	0.0	0.0	0.0	20.0 ± 1.1	28.2 ± 2.7	0.0	0.9 ± 0.2	2.1 ± 0.1	2.5 ± 0.5	10.5 ± 3.0	15.5 ± 1.1	2.2 ± 0.7	
> 100	> 100	> 100	250	250	CC(C)c1cc2c3c(c1OC(=O)CCCc1cn(Cc4ccccc4)nn1)OC(=O)C31CCCC(C)(C)C1CC2 (centres unmarked) [Compound 4, 12-O-(4-(1-benzyl-1H-1,2,3-triazol-4-yl)-butanoyloxy)-11,20-epoxyabieta-8,11,13-trien-20-one]	> 100	0.0	0.0	2.3 ± 1.0	8.5 ± 1.0	9.8 ± 1.1	17.8 ± 1.4	53.4 ± 2.1	3.7 ± 0.4	4.1 ± 1.7	9.5 ± 1.3	16.4 ± 2.3	28.2 ± 2.1	51.6 ± 0.1	10.2 ± 1.2	IC50 ± SD, MRC-5 [2]: inactive; IC50 ± SD, AGS [4]: inactive
		99.4	250	>250	CC(C)c1cc2c(c(OC(=O)CCc3cn(Cc4ccc([N+](=O)[O-])cc4)nn3)c1OC(=O)CCc1cn(Cc3ccc([N+](=O)[O-])cc3)nn1)C13CCCC(C)(C)C1CC2OC3=O (stereo not drawn) [Compound 23, (7β)-11,12-O-(3-(1-(4-nitrobenzyl)-1H-1,2,3-triazol-4-yl)-propanoyloxy)-7,20-epoxyabieta-8,11,13-trien-20-one]		6.0 ± 0.1	11.5 ± 1.5	16.2 ± 0.2	18.1 ± 0.4	32.6 ± 0.8	37.7 ± 0.7		0.0	1.6 ± 0.8	3.3 ± 0.6	6.7 ± 1.6	17.6 ± 1.4	25.5 ± 2.5	6.0 ± 0.5	
